In brackets after ≈: the same amount, converted by molar mass.
Legend:
Type in all cases: functional
Escherichia coli = assay: Antibacterial activity against Escherichia coli ATCC 25922
Streptococcus pneumoniae [1] = assay: Antibacterial activity against erythromycin-susceptible Streptococcus pneumoniae ATCC 49619
Streptococcus pneumoniae [2] = assay: Antibacterial activity against erythromycin-resistant Streptococcus pneumoniae B1 expressing ermB gene
Streptococcus pyogenes [3] = assay: Antibacterial activity against erythromycin-resistant Streptococcus pyogenes isolate R2
Pseudomonas aeruginosa = assay: Antibacterial activity against Pseudomonas aeruginosa ATCC 27853
Streptococcus pneumoniae [4] = assay: Antibacterial activity against erythromycin-resistant Streptococcus pneumoniae AB11 expressing ermB/mefA gene
Staphylococcus aureus [5] = assay: Antibacterial activity against erythromycin-susceptible Staphylococcus aureus ATCC 25923
Staphylococcus aureus [6] = assay: Antibacterial activity against methicillin-susceptible Staphylococcus aureus ATCC 29213
Streptococcus pneumoniae [7] = assay: Antibacterial activity against erythromycin-resistant Streptococcus pneumoniae A22072 expressing mefA gene
Streptococcus pyogenes [8] = assay: Antibacterial activity against erythromycin-susceptible Streptococcus pyogenes isolate S2

Structure (SMILES)	MIC (Escherichia coli) [µg/mL]	MIC (Streptococcus pneumoniae [1]) [µg/mL]	MIC (Streptococcus pneumoniae [2]) [µg/mL]	MIC (Streptococcus pyogenes [3]) [µg/mL]	MIC (Pseudomonas aeruginosa) [µg/mL]	MIC (Streptococcus pneumoniae [4]) [µg/mL]	MIC (Staphylococcus aureus [5]) [µg/mL]	MIC (Staphylococcus aureus [6]) [µg/mL]	MIC (Streptococcus pneumoniae [7]) [µg/mL]	MIC (Streptococcus pyogenes [8]) [µg/mL]
CC[C@H]1OC(=O)[C@H](C)[C@@H](O[C@H]2C[C@@](C)(OC)[C@@H](OC(=O)NCc3cn(Cc4ccc([N+](=O)[O-])cc4)nn3)[C@H](C)O2)[C@H](C)[C@@H](O[C@@H]2O[C@H](C)C[C@H](N(C)C)[C@H]2O)[C@](C)(O)C[C@@H](C)CN(C)[C@H](C)[C@@H](O)[C@]1(C)O	32 (≈ 31.7 µM)	1 (≈ 0.992 µM)	1 (≈ 0.992 µM)	64 (≈ 63.5 µM)	32 (≈ 31.7 µM)	1 (≈ 0.992 µM)	1 (≈ 0.992 µM)	16 (≈ 15.9 µM)	2 (≈ 1.98 µM)	0.03 (≈ 0.0298 µM)
CC[C@H]1OC(=O)[C@H](C)[C@@H](O[C@H]2C[C@@](C)(OC)[C@@H](OC(=O)NCc3cn(Cc4ccc(C)cc4)nn3)[C@H](C)O2)[C@H](C)[C@@H](O[C@@H]2O[C@H](C)C[C@H](N(C)C)[C@H]2O)[C@](C)(O)C[C@@H](C)CN(C)[C@H](C)[C@@H](O)[C@]1(C)O	32 (≈ 32.7 µM)	0.5 (≈ 0.512 µM)	0.5 (≈ 0.512 µM)	64 (≈ 65.5 µM)	64 (≈ 65.5 µM)	1 (≈ 1.02 µM)	1 (≈ 1.02 µM)	16 (≈ 16.4 µM)	0.5 (≈ 0.512 µM)	0.03 (≈ 0.0307 µM)
CC[C@H]1OC(=O)[C@H](C)[C@@H](O[C@H]2C[C@@](C)(OC)[C@@H](OC(=O)NCc3cn(Cc4ccccc4)nn3)[C@H](C)O2)[C@H](C)[C@@H](O[C@@H]2O[C@H](C)C[C@H](N(C)C)[C@H]2O)[C@](C)(O)C[C@@H](C)CN(C)[C@H](C)[C@@H](OC(=O)NCCc2ccccc2)[C@]1(C)O	16 (≈ 14.4 µM)	0.125 (≈ 0.113 µM)	0.25 (≈ 0.225 µM)	32 (≈ 28.8 µM)	8 (≈ 7.2 µM)	0.25 (≈ 0.225 µM)	0.25 (≈ 0.225 µM)	16 (≈ 14.4 µM)	0.125 (≈ 0.113 µM)	< 0.002
CC[C@H]1OC(=O)[C@H](C)[C@@H](O[C@H]2C[C@@](C)(OC)[C@@H](OC(=O)NCc3cn(Cc4ccc(C)cc4)nn3)[C@H](C)O2)[C@H](C)[C@@H](O[C@@H]2O[C@H](C)C[C@H](N(C)C)[C@H]2O)[C@](C)(O)C[C@@H](C)CN(C)[C@H](C)[C@@H](OC(=O)NCc2ccccc2)[C@]1(C)O	32 (≈ 28.8 µM)	0.125 (≈ 0.113 µM)	0.25 (≈ 0.225 µM)	32 (≈ 28.8 µM)	32 (≈ 28.8 µM)	0.25 (≈ 0.225 µM)	0.5 (≈ 0.45 µM)	16 (≈ 14.4 µM)	0.125 (≈ 0.113 µM)	< 0.002
CC[C@H]1OC(=O)[C@H](C)[C@@H](O[C@H]2C[C@@](C)(OC)[C@@H](OC(=O)NCc3cn(Cc4cccc(C)c4)nn3)[C@H](C)O2)[C@H](C)[C@@H](O[C@@H]2O[C@H](C)C[C@H](N(C)C)[C@H]2O)[C@](C)(O)C[C@@H](C)CN(C)[C@H](C)[C@@H](O)[C@]1(C)O	32 (≈ 32.7 µM)	0.5 (≈ 0.512 µM)	1 (≈ 1.02 µM)	32 (≈ 32.7 µM)	32 (≈ 32.7 µM)	1 (≈ 1.02 µM)	1 (≈ 1.02 µM)	16 (≈ 16.4 µM)	1 (≈ 1.02 µM)	0.03 (≈ 0.0307 µM)
CC[C@H]1OC(=O)[C@H](C)[C@@H](O[C@H]2C[C@@](C)(OC)[C@@H](OC(=O)NCc3cn(Cc4ccccc4)nn3)[C@H](C)O2)[C@H](C)[C@@H](O[C@@H]2O[C@H](C)C[C@H](N(C)C)[C@H]2O)[C@](C)(O)C[C@@H](C)CN(C)[C@H](C)[C@@H](OC(=O)NCc2ccncc2)[C@]1(C)O	32 (≈ 29.2 µM)	0.5 (≈ 0.456 µM)	0.125 (≈ 0.114 µM)	32 (≈ 29.2 µM)	64 (≈ 58.3 µM)	0.25 (≈ 0.228 µM)	1 (≈ 0.911 µM)	32 (≈ 29.2 µM)	0.06 (≈ 0.0547 µM)	0.03 (≈ 0.0273 µM)
CC[C@H]1OC(=O)[C@H](C)[C@@H](O[C@H]2C[C@@](C)(OC)[C@@H](OC(=O)NCc3cn(Cc4cccc(Cl)c4)nn3)[C@H](C)O2)[C@H](C)[C@@H](O[C@@H]2O[C@H](C)C[C@H](N(C)C)[C@H]2O)[C@](C)(O)C[C@@H](C)CN(C)[C@H](C)[C@H]2OC(=O)O[C@@]21C	128 (≈ 125 µM)	1 (≈ 0.977 µM)	4 (≈ 3.91 µM)	16 (≈ 15.6 µM)	64 (≈ 62.5 µM)	1 (≈ 0.977 µM)	4 (≈ 3.91 µM)	32 (≈ 31.3 µM)	0.5 (≈ 0.488 µM)	0.06 (≈ 0.0586 µM)
CC[C@H]1OC(=O)[C@H](C)[C@@H](O[C@H]2C[C@@](C)(OC)[C@@H](OC(=O)NCc3cn(Cc4ccc(Cl)cc4)nn3)[C@H](C)O2)[C@H](C)[C@@H](O[C@@H]2O[C@H](C)C[C@H](N(C)C)[C@H]2O)[C@](C)(O)C[C@@H](C)CN(C)[C@H](C)[C@@H](O)[C@]1(C)O	64 (≈ 64.1 µM)	0.5 (≈ 0.501 µM)	2 (≈ 2 µM)	64 (≈ 64.1 µM)	32 (≈ 32.1 µM)	0.5 (≈ 0.501 µM)	1 (≈ 1 µM)	16 (≈ 16 µM)	1 (≈ 1 µM)	0.03 (≈ 0.0301 µM)
CC[C@H]1OC(=O)[C@H](C)[C@@H](O[C@H]2C[C@@](C)(OC)[C@@H](OC(=O)NCc3cn(Cc4ccccc4F)nn3)[C@H](C)O2)[C@H](C)[C@@H](O[C@@H]2O[C@H](C)C[C@H](N(C)C)[C@H]2O)[C@](C)(O)C[C@@H](C)CN(C)[C@H](C)[C@H]2OC(=O)O[C@@]21C	128 (≈ 127 µM)	0.5 (≈ 0.496 µM)	2 (≈ 1.99 µM)	128 (≈ 127 µM)	64 (≈ 63.5 µM)	0.25 (≈ 0.248 µM)	4 (≈ 3.97 µM)	32 (≈ 31.8 µM)	1 (≈ 0.993 µM)	0.125 (≈ 0.124 µM)
CC[C@H]1OC(=O)[C@H](C)[C@@H](O[C@H]2C[C@@](C)(OC)[C@@H](OC(=O)NCc3cn(Cc4ccccc4)nn3)[C@H](C)O2)[C@H](C)[C@@H](O[C@@H]2O[C@H](C)C[C@H](N(C)C)[C@H]2O)[C@](C)(O)C[C@@H](C)CN(C)[C@H](C)[C@H]2OC(=O)O[C@@]21C	128 (≈ 129 µM)	0.5 (≈ 0.505 µM)	8 (≈ 8.09 µM)	128 (≈ 129 µM)	64 (≈ 64.7 µM)	4 (≈ 4.04 µM)	4 (≈ 4.04 µM)	32 (≈ 32.3 µM)	8 (≈ 8.09 µM)	0.06 (≈ 0.0607 µM)
CC[C@H]1OC(=O)[C@H](C)[C@@H](O[C@H]2C[C@@](C)(OC)[C@@H](OC(=O)NCc3cn(Cc4ccc(F)cc4)nn3)[C@H](C)O2)[C@H](C)[C@@H](O[C@@H]2O[C@H](C)C[C@H](N(C)C)[C@H]2O)[C@](C)(O)C[C@@H](C)CN(C)[C@H](C)[C@H]2OC(=O)O[C@@]21C	128 (≈ 127 µM)	1 (≈ 0.993 µM)	8 (≈ 7.94 µM)	32 (≈ 31.8 µM)	64 (≈ 63.5 µM)	4 (≈ 3.97 µM)	4 (≈ 3.97 µM)	32 (≈ 31.8 µM)	1 (≈ 0.993 µM)	0.125 (≈ 0.124 µM)
CC[C@H]1OC(=O)[C@H](C)[C@@H](O[C@H]2C[C@@](C)(OC)[C@@H](OC(=O)NCc3cn(Cc4ccccc4)nn3)[C@H](C)O2)[C@H](C)[C@@H](O[C@@H]2O[C@H](C)C[C@H](N(C)C)[C@H]2O)[C@](C)(O)C[C@@H](C)CN(C)[C@H](C)[C@@H](O)[C@]1(C)O	32 (≈ 33.2 µM)	0.5 (≈ 0.519 µM)	2 (≈ 2.08 µM)	32 (≈ 33.2 µM)	32 (≈ 33.2 µM)	4 (≈ 4.15 µM)	1 (≈ 1.04 µM)	8 (≈ 8.31 µM)	1 (≈ 1.04 µM)	0.06 (≈ 0.0623 µM)
CC[C@H]1OC(=O)[C@H](C)[C@@H](O[C@H]2C[C@@](C)(OC)[C@@H](OC(=O)NCc3cn(Cc4cccc(F)c4)nn3)[C@H](C)O2)[C@H](C)[C@@H](O[C@@H]2O[C@H](C)C[C@H](N(C)C)[C@H]2O)[C@](C)(O)C[C@@H](C)CN(C)[C@H](C)[C@H]2OC(=O)O[C@@]21C	128 (≈ 127 µM)	1 (≈ 0.993 µM)	4 (≈ 3.97 µM)	128 (≈ 127 µM)	64 (≈ 63.5 µM)	0.5 (≈ 0.496 µM)	4 (≈ 3.97 µM)	32 (≈ 31.8 µM)	4 (≈ 3.97 µM)	0.125 (≈ 0.124 µM)
CC[C@H]1OC(=O)[C@H](C)[C@@H](O[C@H]2C[C@@](C)(OC)[C@@H](OC(=O)NCc3cn(Cc4ccccc4C)nn3)[C@H](C)O2)[C@H](C)[C@@H](O[C@@H]2O[C@H](C)C[C@H](N(C)C)[C@H]2O)[C@](C)(O)C[C@@H](C)CN(C)[C@H](C)[C@H]2OC(=O)O[C@@]21C	128 (≈ 128 µM)	0.5 (≈ 0.498 µM)	4 (≈ 3.99 µM)	64 (≈ 63.8 µM)	64 (≈ 63.8 µM)	2 (≈ 1.99 µM)	4 (≈ 3.99 µM)	32 (≈ 31.9 µM)	2 (≈ 1.99 µM)	0.06 (≈ 0.0598 µM)
